System: African-American individuals with SCN5A variant S1103Y
Conditions: carriers of SCN5A S1103Y variant; three individuals after amiodarone treatment, one after infusion of brevital; QT prolongation exacerbated in these cases
Excerpt: To determine the genetic basis for these arrhythmias, individuals with drug-induced torsade de pointes and ventricular fibrillation were screened for mutations in known arrhythmia genes.

## C=CCC1(C(C)C#CCC)C(=O)N=C([O-])N(C)C1=O.[Na+] (stereo not shown) [brevital]
  arrhythmia after drug treatment: experienced arrhythmia
